Counter-ions that a name gives are not always drawn. Where a SMILES comes first, the peptide text is derived from it. [ ]: non-standard residue; d: D form. The star is where a group is joined. X4 = O=C(COc1c(-c2csc(N3CCOCC3)n2)ccc(F)c1F)NCCCCN*; Dip = N[C@H](C(=O)O)C(c1ccccc1)c1ccccc1; Chg = N[C@H](C(=O)O)C1CCCCC1; NMeA = CN[C@@H](C)C(=O)O
System: 22Rv1
Experiment: 22Rv1 cell proliferation assay (Experimental Example 1, cell count)
Type: cell-based
Conditions: Homo sapiens, 22Rv1, read-out: 22Rv1 cell count decrease at 10 μM for 48 hours
Procedure: The human prostate cancer cell line, 22Rv1 has been reported to express a high level of AR-V7. […] Standard culture media was RPMI-1640 supplemented with 10% fetal bovine serum. The test compound initially was dissolved in DMSO at 50 mM. This stock solution was then diluted as needed for the indicated concentrations. […]
In the Table: (+)—the cell count decreased between 0 and 20%; (++)—the cell count decreased […]; (+++)—the cell count decreased by more than 50%.

Structure (SMILES) | inhibition at 10 µM
CN[C@@H](C)C(=O)N[C@H](C(=O)N1CCC[C@H]1C(=O)N[C@H](C(=O)NCCCCNC(=O)COc1c(-c2csc(N3CCOCC3)n2)ccc(F)c1F)C(c1ccccc1)c1ccccc1)C1CCCCC1 [Example 25, (S)-1-((S)-2-cyclohexyl-2-((S)-2-(methylamino)propanamido)acetyl)-N-((S)-1-((4-(2-(2,3-difluoro-6-(2-morpholinothiazol-4-yl)phenoxy)acetamido)butyl)amino)-1-oxo-3,3-diphenylpropan-2-yl)pyrrolidine-2-carboxamide] (H-[NMeA][Chg]P[Dip]-X4) | > 50%

Same assay, conditions: Homo sapiens, 22Rv1, read-out: 22Rv1 cell count decrease at 10 μM for 48 hours; 10 μM (method: four days); read-out: 22Rv1 cell count decrease at 10 μM

Structure (SMILES) | inhibition at 10 µM
O=C(COc1c(-c2csc(N3CCOCC3)n2)ccc(F)c1F)NCCCCCCCCCCNc1cccc2c1C(=O)N(C1CCC(=O)NC1=O)C2=O (stereo not shown) [Example 3, 2-(2,3-difluoro-6-(2-morpholinothiazol-4-yl)phenoxy)-N-(10-((2-(2,6-dioxopiperidin-3-yl)-1,3-dioxoisoindolin-4-yl)amino)decyl)acetamide] | < 50%
O=C(COc1c(-c2csc(N3CCOCC3)n2)ccc(F)c1F)NCCCCCCNc1cccc2c1C(=O)N(C1CCC(=O)NC1=O)C2=O (stereo not shown) [Example 1, 2-(2,3-difluoro-6-(2-morpholinothiazol-4-yl)phenoxy)-N-(6-((2-(2,6-dioxopiperidin-3-yl)-1,3-dioxoisoindolin-4-yl)amino)hexyl)acetamide] | < 50%
O=C1CCC(N2C(=O)c3cccc(NCCOCCOCCOCCOc4c(-c5csc(N6CCOCC6)n5)ccc(F)c4F)c3C2=O)C(=O)N1 (stereo not shown) [Example 13, 4-((2-(2-(2-(2-(2,3-difluoro-6-(2-morpholinothiazol-4-yl)phenoxy)ethoxy)ethoxy)ethoxy)ethyl)amino)-2-(2,6-dioxopiperidin-3-yl)isoindoline-1,3-dione] | 0 to 20%
O=C(COc1c(-c2csc(N3CCOCC3)n2)ccc(F)c1F)NCCOCCOCCOCCOCCNc1cccc2c1C(=O)N(C1CCC(=O)NC1=O)C2=O (stereo not shown) [Example 6, 2-(2,3-difluoro-6-(2-morpholinothiazol-4-yl)phenoxy)-N-(14-((2-(2,6-dioxopiperidin-3-yl)-1,3-dioxoisoindolin-4-yl)amino)-3,6,9,12-tetraoxatetradecyl)acetamide] | 0 to 20%
Cc1ncsc1-c1ccc([C@H](C)NC(=O)[C@@H]2C[C@@H](O)CN2C(=O)[C@@H](NC(=O)CCCCCCCOc2c(-c3csc(N4CCOCC4)n3)ccc(F)c2F)C(C)(C)C)cc1 [Example 21, (2S,4R)-1-((S)-2-(8-(2,3-difluoro-6-(2-morpholinothiazol-4-yl)phenoxy)octanamido)-3,3-dimethylbutanoyl)-4-hydroxy-N-((S)-1-(4-(4-methylthiazol-5-yl)phenyl)ethyl)pyrrolidine-2-carboxamide] | < 50%
CN[C@@H](C)C(=O)N[C@H](C(=O)N1Cc2cc(OCCOCCOCCOc3c(-c4csc(N5CCOCC5)n4)ccc(F)c3F)ccc2C[C@H]1C(=O)N[C@@H]1CCCc2ccccc21)C(C)(C)C [Example 36, (S)-7-(2-(2-(2-(2,3-difluoro-6-(2-morpholinothiazol-4-yl)phenoxy)ethoxy)ethoxy)ethoxy)-2-((S)-3,3-dimethyl-2-((S)-2-(methylamino)propanamido)butanoyl)-N-((R)-1,2,3,4-tetrahydronaphthalen-1-yl)-1,2,3,4-tetrahydroisoquinoline-3-carboxamide dihydrochloride] | > 50%
COc1cc(C(=O)NCCOCCOCCOc2c(-c3csc(N4CCOCC4)n3)ccc(F)c2F)ccc1NC(=O)[C@@H]1N[C@@H](CC(C)(C)C)[C@](C#N)(c2ccc(Cl)cc2F)[C@H]1c1cccc(Cl)c1F [Example 27, (2R,3S,4R,5S)-3-(3-chloro-2-fluorophenyl)-4-(4-chloro-2-fluorophenyl)-4-cyano-N-(4-((2-(2-(2-(2,3-difluoro-6-(2-morpholinothiazol-4-yl)phenoxy)ethoxy)ethoxy)ethyl)carbamoyl)-2-methoxyphenyl)-5-neopentylpyrrolidine-2-carboxamide] | > 50%
Cc1ncsc1-c1ccc([C@H](C)NC(=O)[C@@H]2C[C@@H](O)CN2C(=O)[C@@H](NC(=O)CCCNC(=O)COc2c(-c3csc(N4CCOCC4)n3)ccc(F)c2F)C(C)(C)C)cc1 [Example 15, (2S,4R)-1-((S)-2-(4-(2-(2,3-difluoro-6-(2-morpholinothiazol-4-yl)phenoxy)acetamido)butanamido)-3,3-dimethylbutanoyl)-4-hydroxy-N-((S)-1-(4-(4-methylthiazol-5-yl)phenyl)ethyl)pyrrolidine-2-carboxamide] | < 50%
Cc1ncsc1-c1ccc([C@H](C)NC(=O)[C@@H]2C[C@@H](O)CN2C(=O)[C@@H](NC(=O)CCCCNC(=O)c2cccc3sc(N4CCOCC4)nc23)C(C)(C)C)cc1 [Example 30, N-(5-(((S)-1-((2S,4R)-4-hydroxy-2-(((S)-1-(4-(4-methylthiazol-5-yl)phenyl)ethyl)carbamoyl)pyrrolidin-1-yl)-3,3-dimethyl-1-oxobutan-2-yl)amino)-5-oxopentyl)-2-morpholinobenzo[d]thiazole-4-carboxamide] | < 50%

System: 22Rv1-Enz^R
Experiment: 22Rv1-Enz^R cell proliferation assay, GIC50 (Experimental Example 4)
Type: cell-based
Conditions: Homo sapiens; 6-day culture, cell media changed every 24 hours
Procedure: Selected compounds were tested in the human prostate cancer cell line, 22Rv1-Enz^R as described in Geun Taek Lee et al., Molecular Cancer Therapeutics, 20:490-9 (2021). These procedures are similar to that described in Experimental Example 1, above, except that the assay conditions are a 6-day culture with cell media changed every 24 hours.
In the Table: (+)—GIC50<20 μM; (++)—GIC50<10 μM; (+++)—GIC50<1 μM.

Structure (SMILES) | IC50
Cc1ncsc1-c1ccc([C@H](C)NC(=O)[C@@H]2C[C@@H](O)CN2C(=O)[C@@H](NC(=O)CNCCOCCOc2c(-c3csc(N4CCOCC4)n3)ccc(F)c2F)C(C)(C)C)cc1 [Example 40, (2S,4R)-1-((S)-2-(2-((2-(2-(2,3-difluoro-6-(2-morpholinothiazol-4-yl)phenoxy)ethoxy)ethyl)amino)acetamido)-3,3-dimethylbutanoyl)-4-hydroxy-N-((S)-1-(4-(4-methylthiazol-5-yl)phenyl)ethyl)pyrrolidine-2-carboxamide] | < 1 µM
Cc1ncsc1-c1ccc([C@H](C)NC(=O)[C@@H]2C[C@@H](O)CN2C(=O)[C@@H](NC(=O)CCCCCCOc2c(F)ccc3sc(N4CCOCC4)nc23)C(C)(C)C)cc1 [Example 43, (2S,4R)-1-((S)-2-(7-((5-fluoro-2-morpholinobenzo[d]thiazol-4-yl)oxy)heptanamido)-3,3-dimethylbutanoyl)-4-hydroxy-N-((S)-1-(4-(4-methylthiazol-5-yl)phenyl)ethyl)pyrrolidine-2-carboxamide] | < 20 µM
Cc1ncsc1-c1ccc([C@H](C)NC(=O)[C@@H]2C[C@@H](O)CN2C(=O)[C@@H](NC(=O)CCCCOc2c(F)ccc3sc(N4CCOCC4)nc23)C(C)(C)C)cc1 [Example 42, (2S,4R)-1-((S)-2-(5-((5-fluoro-2-morpholinobenzo[d]thiazol-4-yl)oxy)pentanamido)-3,3-dimethylbutanoyl)-4-hydroxy-N-((S)-1-(4-(4-methylthiazol-5-yl)phenyl)ethyl)pyrrolidine-2-carboxamide] | < 10 µM

Now from value to compound:

IC50 | Structure (SMILES)
< 1 µM | Cc1ccc(-c2csc(N3CCOCC3)n2)c(OCC(=O)NCCCCC(=O)N[C@H](C(=O)N2C[C@H](O)C[C@H]2C(=O)N[C@@H](C)c2ccc(-c3scnc3C)cc2)C(C)(C)C)c1C [Example 37, (2S,4R)-1-((S)-2-(5-(2-(2,3-dimethyl-6-(2-morpholinothiazol-4-yl)phenoxy)acetamido)pentanamido)-3,3-dimethylbutanoyl)-4-hydroxy-N-((S)-1-(4-(4-methylthiazol-5-yl)phenyl)ethyl)pyrrolidine-2-carboxamide]
< 20 µM | O=C(COc1c(-c2csc(N3CCOCC3)n2)ccc(F)c1F)NCCCCCCCCCCNc1cccc2c1C(=O)N(C1CCC(=O)NC1=O)C2=O (stereo not shown) [Example 3, 2-(2,3-difluoro-6-(2-morpholinothiazol-4-yl)phenoxy)-N-(10-((2-(2,6-dioxopiperidin-3-yl)-1,3-dioxoisoindolin-4-yl)amino)decyl)acetamide]
< 20 µM | O=C(COc1c(-c2csc(N3CCOCC3)n2)ccc(F)c1F)NCCCCCCNc1cccc2c1C(=O)N(C1CCC(=O)NC1=O)C2=O (stereo not shown) [Example 1, 2-(2,3-difluoro-6-(2-morpholinothiazol-4-yl)phenoxy)-N-(6-((2-(2,6-dioxopiperidin-3-yl)-1,3-dioxoisoindolin-4-yl)amino)hexyl)acetamide]
< 10 µM | Cc1ncsc1-c1ccc([C@H](C)NC(=O)[C@@H]2C[C@@H](O)CN2C(=O)[C@@H](NC(=O)CCCCOc2c(-c3csc(N4CCOCC4)n3)ccc(F)c2F)C(C)(C)C)cc1 [Example 41, (2S,4R)-1-((S)-2-(5-(2,3-difluoro-6-(2-morpholinothiazol-4-yl)phenoxy)pentanamido)-3,3-dimethylbutanoyl)-4-hydroxy-N-((S)-1-(4-(4-methylthiazol-5-yl)phenyl)ethyl)pyrrolidine-2-carboxamide]
< 20 µM | Cc1ncsc1-c1ccc([C@H](C)NC(=O)[C@@H]2C[C@@H](O)CN2C(=O)[C@@H](NC(=O)CCC(=O)NCCCOc2c(-c3csc(N4CCOCC4)n3)ccc(F)c2F)C(C)(C)C)cc1 [Example 38, N^1-(3-(2,3-difluoro-6-(2-morpholinothiazol-4-yl)phenoxy)propyl)-N^4-((S)-1-((2S,4R)-4-hydroxy-2-(((S)-1-(4-(4-methylthiazol-5-yl)phenyl)ethyl)carbamoyl)pyrrolidin-1-yl)-3,3-dimethyl-1-oxobutan-2-yl)succinamide]
< 20 µM | Cc1ncsc1-c1ccc([C@H](C)NC(=O)[C@@H]2C[C@@H](O)CN2C(=O)[C@@H](NC(=O)CCC(=O)NCCOCCOc2c(-c3csc(N4CCOCC4)n3)ccc(F)c2F)C(C)(C)C)cc1 [Example 39, N^1-(2-(2-(2,3-difluoro-6-(2-morpholinothiazol-4-yl)phenoxy)ethoxy)ethyl)-N^4-((S)-1-((2S,4R)-4-hydroxy-2-(((S)-1-(4-(4-methylthiazol-5-yl)phenyl)ethyl)carbamoyl)pyrrolidin-1-yl)-3,3-dimethyl-1-oxobutan-2-yl)succinamide]
